This passage reports Ki results from US20240400553A1, “AMINE BASED MATRIPTASE 2 INHIBITORS AND USES THEREOF” (Disc Medicine, Inc., priority 2023, published 2024).

A value given as a limit tells only on which side of the number the result lay.

The first assay deals with T1, Human Recombinant Matriptase 2 (Homo sapiens, UniProt Q8IU80).
T1 construct: made in house
T1 sequence (Q8IU80 1-811): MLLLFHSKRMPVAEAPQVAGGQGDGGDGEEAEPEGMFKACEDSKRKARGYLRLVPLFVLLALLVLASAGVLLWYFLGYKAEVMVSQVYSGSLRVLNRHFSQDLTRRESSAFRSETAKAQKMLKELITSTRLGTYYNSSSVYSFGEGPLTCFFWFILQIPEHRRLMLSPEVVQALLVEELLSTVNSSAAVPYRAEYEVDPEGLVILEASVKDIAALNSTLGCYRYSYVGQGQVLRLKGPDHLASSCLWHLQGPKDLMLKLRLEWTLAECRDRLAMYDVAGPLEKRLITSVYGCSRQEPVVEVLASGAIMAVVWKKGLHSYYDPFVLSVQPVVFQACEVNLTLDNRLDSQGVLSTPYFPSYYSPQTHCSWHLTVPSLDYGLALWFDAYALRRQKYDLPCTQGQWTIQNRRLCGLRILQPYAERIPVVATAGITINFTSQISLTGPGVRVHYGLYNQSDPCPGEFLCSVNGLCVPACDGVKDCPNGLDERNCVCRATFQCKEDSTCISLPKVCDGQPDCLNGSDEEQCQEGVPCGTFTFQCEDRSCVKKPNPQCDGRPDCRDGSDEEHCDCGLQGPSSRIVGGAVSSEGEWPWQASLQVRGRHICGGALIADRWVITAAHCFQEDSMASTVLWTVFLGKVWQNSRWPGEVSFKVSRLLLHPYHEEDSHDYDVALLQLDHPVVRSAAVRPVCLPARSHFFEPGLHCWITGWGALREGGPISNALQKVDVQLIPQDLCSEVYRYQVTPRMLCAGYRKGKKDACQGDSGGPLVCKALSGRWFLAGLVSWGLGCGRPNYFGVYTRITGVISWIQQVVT
Put plainly: Matriptase 2 inhibition, fluorescence based assay (Method I). The assay is classed as biochemical. The conditions noted are these: Table A; Ki of Matriptase-2; read-out: Mat-2 Ki. A digest of the protocol:
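In-house recombinant enzyme (3.5 nM), preincubated 30 min with compound, then Boc-Gln-Ala-Arg-AMC substrate (62 μM) in 50 mM Tris pH 7.5, 150 mM NaCl, 0.01% gelatin, 1% DMSO, 25 °C. Fluorescence (Ex 360/Em 480 nm) read 60 min after substrate; IC50 from variable-slope sigmoidal fit of % inhibition.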
For the compound `CN(C)CCCCOC(=O)c1cc2ccc(CN)nc2n1Cc1cc(NS(=O)(=O)Cc2ccccc2)cc2ccccc12` [Compound 25, 4-(dimethylamino)butyl 6-(aminomethyl)-1-{[3-(phenylmethanesulfon-amido)naphthalen-1-yl]-methyl}-1H-pyrrolo[2,3-b]pyridine-2-carboxylate], the Ki (in general, a dissociation constant, usually derived from enzyme kinetics or from competition with a known ligand) was not above 100 nM. On the same count and under the same terms, the figure for `COCCN1CCC(COC(=O)c2cc3ccc(CN)nc3n2Cc2cc(NS(=O)(=O)Cc3ccsc3)cc3ccccc23)CC1` [Compound 167, [1-(2-methoxyethyl)-piperidin-4-yl]methyl 6-(aminomethyl)-1-({3-[(thiophen-3-yl)meth-anesulfonamido]naph-thalen-1-yl}methyl)-1H-pyrrolo[2,3-b]pyridine-2-carboxylate] is not above 100 nM; for `NCc1ccc2cc(C(=O)OCC3CCOCC3)n(Cc3cc(NS(=O)(=O)Cc4ccsc4)cc4ccccc34)c2n1` [Compound 176, (oxan-4-yl)methyl 6-(aminomethyl)-1-({3-[(thiophen-3-yl)methane-sulfonamido]naphthalen-1-yl}methyl)-1H-pyr-rolo[2,3-b]pyridine-2-carboxylate] it is not above 100 nM. Same read-out and setting: under `COc1ccccc1CS(=O)(=O)Nc1cc(Cn2c(C(=O)O)cc3ccc(CN)nc32)c2ccccc2c1` [Compound 180, 6-(aminomethyl)-1-({3-[(2-methoxyphenyl)-methanesulfonamido]-naphthalen-1-yl}meth-yl)-1H-pyrrolo[2,3-b]-pyridine-2-carboxylic acid] stands 100 to 500 nM; under `CN1CCC(CCNC(=O)c2cc3ccc(CN)nc3n2Cc2cc(NS(=O)(=O)Cc3ccsc3)cc3ccccc23)CC1` [Compound 162, 6-(aminomethyl)-N-[2-(1-methylpiperidin-4-yl)-ethyl]-1-({3-[(thiophen-3-yl)methanesulfon-amido]naphthalen-1-yl}-methyl)-1H-pyrrolo[2,3-b]pyridine-2-carboxamide], not above 100 nM. Consider `CC(C)C(=O)O[C@H](C)OC(=O)c1cc2ccc(CN)nc2n1Cc1cc(NS(=O)(=O)Cc2ccccc2)cc2ccccc12` (racemic) [Compound 118, 1-[6-(aminomethyl)-1-{[3-(phenylmethanesul-fonamido)naphthalen-1-yl]methyl}-1H-pyrrolo-[2,3-b]pyridine-2-car-bonyloxylethyl 2-meth-ylpropanoate], for which the Ki lay in the range of 500 to 3000 nM.

On to `CC(C)(C)n1cncc1CCOC(=O)c1cc2ccc(CN)nc2n1Cc1cc(NS(=O)(=O)Cc2ccccc2)cc2ccccc12` [Compound 104, 2-(1-tert-butyl-1H-imid-azol-5-yl)ethyl 6-(amino-methyl)-1-{[3-(phenyl-methanesulfonamido)-naphthalen-1-yl]methyl}-1H-pyrrolo[2,3-b]pyr-idine-2-carboxylate], for which the Ki lay within 100 to 500 nM.

Still in this assay, the particulars now being: Table A; Ki of Matriptase-2 given as class symbols; read-out: Mat-2 Ki.
`NCc1ccc2cc(C(=O)O)n(Cc3cc(NC(=O)OC[C@H]4CCN4Cc4ccccc4)cc4ccccc34)c2n1` (racemic) [Compound 340, rac-6-(aminomethyl)-1-({3-[({[(2R)-1-benzyl-azetidin-2-yl]methoxy}-carbonyl)amino]naph-thalen-1-yl}methyl)-1H-pyrrolo[2,3-b]pyridine-2-carboxylic acid]: the Ki is 500 to 3000 nM. Same read-out and setting: the figure for `CC(C)(C)OC(=O)N1CC[C@H](S(=O)(=O)Nc2cc(Cn3c(C(=O)O)cc4ccc(CN)nc43)c3ccccc3c2)C1` [Compound 268] is 100 to 500 nM; for `CC(C)[C@H]1CCCN1C(=O)Nc1cc(Cn2c(C(=O)O)cc3ccc(CN)nc32)c2ccccc2c1` [Compound 299, 6-(aminomethyl)-1-[(3-{[(2R)-2-(propan-2-yl)-pyrrolidine-1-carbonyl]-amino}naphthalen-1-yl)-methyl]-1H-pyrrolo[2,3-b]pyridine-2-carboxylic acid] it is 500 to 3000 nM.

Take `CN1CCC(COC(=O)c2cc3ccc(CN)nc3n2Cc2cc(NS(=O)(=O)CC3CCNCC3)cc3ccccc23)CC1` [Compound 249, (1-methylpiperidin-4-yl)methyl 6-(amino-methyl)-1-({3-{(piperi-din-4-yl)methanesul-fonamido]naphthalen-1-yl}methyl)-1H-pyr-rolo[2,3-b]pyridine-2-carboxylate]: the Ki was in the range of 500 to 3000 nM.

In the case of `NCc1ccc2cc(C(=O)O)n(Cc3cc(NS(=O)(=O)Cc4cncnc4)cc4ccccc34)c2n1` [Compound 231, 6-(aminomethyl)-1-({3-[(pyrimidin-5-yl)methane-sulfonamido]naphthalen-1-yl}methyl)-1H-pyr-rolo[2,3-b]pyridine-2-carboxylic acid], the Ki fell in the range of 100 to 500 nM. On the same count and under the same terms, under `COCCN1CCN(C(=O)Nc2cc(Cn3c(C(N)=O)cc4ccc(CN)nc43)c3ccccc3c2)CC1` [Compound 344, 6-(aminomethyl)-1-((3-(4-(2-methoxyethyl)piperazine-1-carboxamido)naphthalen-1-yl)methyl)-1H-pyrrolo[2,3-b]pyridine-2-carboxamide] stands 100 to 500 nM; under `Cc1cccc(C)c1CS(=O)(=O)Nc1cc(Cn2c(C(=O)OCC3CCN(C=O)CC3)cc3ccc(CN)nc32)c2ccccc2c1` [Compound 198, (1-formylpiperidin-4-yl)-methyl 6-(aminomethyl)-1-({3-[(2,6-dimethyl-phenyl)methanesulfon-amido]naphthalen-1-yl}-methyl)-1H-pyrrolo[2,3-b]pyridine-2-carboxylate], not above 100 nM.

With `CC(C)(C)S(=O)(=O)N1CCC(CNC(=O)Nc2cc(Cn3c(C(=O)O)cc4ccc(CN)cc43)c3ccccc3c2)CC1` [Compound 396, 6-(aminomethyl)-1-({3-[({[1-(2-methylpropane-2-sulfonyl)piperidin-4-yl]methyl}carbamoyl)-amino]naphthalen-1-yl}-methyl)-1H-indole-2-carboxylic acid], the Ki fell in the range of 100 to 500 nM. Still for that read-out and setting: under `CC(C)(C)n1cncc1COC(=O)c1cc2ccc(CN)cc2n1Cc1cc(NS(=O)(=O)Cc2ccccc2)cc2ccccc12` [Compound 386, (1-tert-butyl-1H-imid-azol-5-yl)methyl 6-(aminomethyl)-1-{[3-(phenylmethanesulfon-amido)naphthalen-1-yl]-methyl}-1H-indole-2-carboxylate] stands 100 to 500 nM.

For the compound `NCc1ccc2cc(C(=O)O)n(Cc3cc(NS(=O)(=O)CCCn4cnnn4)cc4ccccc34)c2n1` [Compound 264, 6-(aminomethyl)-1-({3-[3-(1H-1,2,3,4-tetrazol-1-yl)propanesulfonamido]-naphthalen-1-yl}methyl)-1H-pyrrolo[2,3-b]pyr-idine-2-carboxylic acid], the Ki lay in the range of 100 to 500 nM.

As for `NCc1ccc2cc(C(=O)O)n(Cc3cc(NS(=O)(=O)Cc4ccno4)cc4ccccc34)c2n1` [Compound 233, 6-(aminomethyl)-1-({3-[(1,2-oxazol-5-yl)-methanesulfonamido]-naphthalen-1-yl}methyl)-1H-pyrrolo[2,3-b]pyr-idine-2-carboxylic acid], the Ki was in the range of 100 to 500 nM. Still for that read-out and setting: the figure for `CN1CCC(COC(=O)c2cc3ccc(CN)nc3n2Cc2cc(NS(=O)(=O)CC34CC(F)(C3)C4)cc3ccccc23)CC1` [Compound 248, (1-methylpiperidin-4-yl)-methyl 6-(aminomethyl)-1-{[3-({3-fluorobicyclo-[1.1.1]pentan-1-yl}-methanesulfonamido)-naphthalen-1-yl]methyl}-1H-pyrrolo[2,3-b]pyr-idine-2-carboxylate] is 500 to 3000 nM; for `N#Cc1cccc(CS(=O)(=O)Nc2cc(Cn3c(C(=O)O)cc4ccc(CN)nc43)c3ccccc3c2)c1` [Compound 218, 6-(aminomethyl)-1-({3-[(3-cyanophenyl)meth-anesulfonamido]naph-thalen-1-yl}methyl)-1H-pyrrolo[2,3-b]pyridine-2-carboxylic acid] it is 100 to 500 nM. On the same count and under the same terms, under `NCc1ccc2cc(C(=O)O)n(Cc3cc(NS(=O)(=O)C4CCOCC4)cc4ccccc34)c2n1` [Compound 240, 6-(aminomethyl)-1-{[3-(oxane-4-sulfonamido)-naphthalen-1-yl]methyl}-1H-pyrrolo[2,3-b]pyr-idine-2-carboxylic acid] stands 100 to 500 nM.

In the case of `CN1CCC(COC(=O)c2cc3ccc(CN)nc3n2Cc2cc(NS(=O)(=O)Cc3cccc(C#N)c3)cc3ccccc23)CC1` [Compound 221, (1-methylpiperidin-4-yl)methyl 6-(aminometh-yl)-1-({3-[(3-cyanophen-yl)methanesulfonamido]-naphthalen-1-yl}methyl)-1H-pyrrolo[2,3-b]pyr-idine-2-carboxylate], the Ki fell in the range of 100 to 500 nM. The same measure, in the same setting: the figure for `NCc1ccc2cc(C(=O)O)n(Cc3cc(NS(=O)(=O)[C@@H]4CCOC4)cc4ccccc34)c2n1` [Compound 276] is 500 to 3000 nM.

The assay is the same for the next values; noted with them: Table B; Human Recombinant Matriptase 2, 3.5 nM enzyme, 62 μM substrate, 30 mins preincubation; read-out: Mean Ki.
`NCc1ccc2cc(C(=O)OCC3CNC(=O)C3)n(Cc3cc(NS(=O)(=O)Cc4ccsc4)cc4ccccc34)c2n1` (stereo not drawn) [Compound 2.13]: the Ki is not above 100 nM.
